Measured values taken from the NIST ThermoML archive (doi:10.1016/j.jct.2012.09.017).
Numbers after ± are expanded uncertainties.

How the values were obtained:
[1] = 101.33 kPa, Liquid, Vibrating tube method
[2] = activity coefficient (dimensionless); of the first substance listed, at infinite dilution; xn = mol fraction of the nth substance listed; details: 101 kPa, Liquid, Chromatography, x1 = 0

Row | SMILES | mass density ([1]; 333.15 K) | mass density ([1]; 343.15 K) | activity coefficient ([2]; 318.15 K) | activity coefficient ([2]; 323.15 K) | activity coefficient ([2]; 333.15 K) | activity coefficient ([2]; 343.15 K) | activity coefficient ([2]; 353.15 K) | activity coefficient ([2]; 363.15 K) | activity coefficient ([2]; 373.15 K) | also measured
1 | CCCC[N+]1(C)CCCC1.O=C1O[B-]2(OC1=O)OC(=O)C(=O)O2 [1-butyl-1-methylpyrrolidinium bis(oxalato)borate] | 1231.29 ± 0.44 kg/m3 | 1223.19 ± 0.43 kg/m3 |  |  |  |  |  |  |  | mass density ([1]; 328.15 K): 1235.34 ± 0.44 kg/m3; mass density ([1]; 338.15 K): 1227.23 ± 0.43 kg/m3; mass density ([1]; 348.15 K): 1219.17 ± 0.43 kg/m3; mass density ([1]; 353.15 K): 1215.17 ± 0.42 kg/m3
2 | CCCC[N+]1(C)CCCC1.N#C[B-](C#N)(C#N)C#N [1-butyl-1-methylpyrrolidinium tetracyanoborate] | 952.4 ± 0.29 kg/m3 | 945.83 ± 0.29 kg/m3 |  |  |  |  |  |  |  | mass density ([1]; 283.15 K): 986.48 ± 0.29 kg/m3; mass density ([1]; 293.15 K): 979.5 ± 0.29 kg/m3; mass density ([1]; 303.15 K): 972.59 ± 0.29 kg/m3; mass density ([1]; 313.15 K): 965.77 ± 0.29 kg/m3; mass density ([1]; 323.15 K): 959.04 ± 0.29 kg/m3
3 | Cc1ccccc1 [toluene] + CCCC[N+]1(C)CCCC1.N#C[B-](C#N)(C#N)C#N |  |  | 1.13 ± 0.05 | 1.15 ± 0.05 | 1.17 ± 0.05 | 1.19 ± 0.05 | 1.22 ± 0.06 |  |  | 
4 | Cc1ccccc1 [toluene] + CCCC[N+]1(C)CCCC1.O=C1O[B-]2(OC1=O)OC(=O)C(=O)O2 |  |  |  |  | 2.57 ± 0.13 | 2.52 ± 0.13 | 2.47 ± 0.13 | 2.43 ± 0.12 | 2.4 ± 0.12 | 
5 | ClC(Cl)Cl [trichloromethane] + CCCC[N+]1(C)CCCC1.N#C[B-](C#N)(C#N)C#N |  |  | 0.609 ± 0.033 | 0.623 ± 0.033 | 0.654 ± 0.034 | 0.683 ± 0.034 | 0.711 ± 0.035 |  |  | 
6 | ClC(Cl)Cl [trichloromethane] + CCCC[N+]1(C)CCCC1.O=C1O[B-]2(OC1=O)OC(=O)C(=O)O2 |  |  |  |  | 1 ± 0.04 | 1.03 ± 0.05 | 1.06 ± 0.05 | 1.08 ± 0.05 | 1.11 ± 0.05 | 
